In patent US10988482B2, “IRAK4 inhibitor and use thereof” (BEIJING HANMI PHARMACEUTICAL CO., LTD., priority 2015, dated 2021) one finds IC50 data, which are given here for 42 compounds.

What is called IC50 is the midpoint of a concentration-inhibition curve.

The target of the first experiment is IRAK4 kinase (Homo sapiens (Human), UniProt Q9NWZ3). Put plainly: IRAK4 kinase activity inhibition assay (ADP-Glo). Format: biochemical. The following applies: 10 μM ATP, MBP substrate, 60 min at 25° C. How it is done: IRAK4 kinase (purchased from Life Technologies, Cat. No.: PR5612U) was diluted to 2 folds of the final concentration (the final concentration is 0.76 ng/μL) with reaction buffer (40 mM Tris-HCl, pH 7.5; 20 mM MgCl2; 0.1 mg/mL BSA; 1 mM DTT), and added to a 384-well plate at 5 μL/well. The test drugs were 10-fold serial diluted from 10 μM to set six concentration points and added to the test wells of the 384-well plate at 2.5 μL/well. After incubation for 10 min at 25° C., 10 μM of ATP and […] of an enzyme reaction substrate, myelin basic protein MBP (purchased from SignalChem, Cat. No.: M42-51N) were added at 2.5 µL/well, and reacted at 25° C. for 60 minutes. After the reaction was completed, the kinase activity assay was performed using the ADP-Glo™ kinase assay kit (purchased from Promega, Cat. No.: V9102) according to the manufacture's instruction, i.e., 10 μL of ADP-Glo reaction reagent was first added and reacted at 25° C. for 40 minutes, 10 μL of the solution to be tested was taken and mixed with 10 μL of ADP-Glo detection reagent, and reacted at 25° C. for 30 minutes. The kinase activity was then detected, and the IC50 values of the test drugs were calculated.
IRAK4 kinase, sequence (Q9NWZ3 whole entry): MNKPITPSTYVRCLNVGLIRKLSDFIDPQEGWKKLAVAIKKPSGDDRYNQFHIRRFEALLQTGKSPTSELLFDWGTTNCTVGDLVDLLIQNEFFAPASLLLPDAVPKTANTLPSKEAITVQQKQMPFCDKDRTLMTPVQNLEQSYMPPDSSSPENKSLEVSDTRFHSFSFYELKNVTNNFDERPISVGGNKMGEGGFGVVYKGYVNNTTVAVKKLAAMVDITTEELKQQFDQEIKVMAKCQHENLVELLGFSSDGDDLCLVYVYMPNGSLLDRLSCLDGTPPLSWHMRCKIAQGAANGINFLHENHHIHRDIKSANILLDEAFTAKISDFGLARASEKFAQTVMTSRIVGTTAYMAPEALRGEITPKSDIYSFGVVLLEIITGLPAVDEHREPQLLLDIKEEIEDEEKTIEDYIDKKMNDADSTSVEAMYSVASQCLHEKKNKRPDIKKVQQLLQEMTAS
Background: ADP-Glo first removes unused ATP, then detects ADP through luciferase.
For the compound `Cc1cc(Nc2nc(N[C@H]3CC[C@](C)(O)CC3)c3sccc3n2)sn1` [Compound 9], the IC50 was at most 100 nM. On the same count and under the same terms, the value for `C[C@]1(O)CC[C@H](Nc2nc(Nc3ccc(C(=O)NC4CCNCC4)cc3)nc3ccsc23)CC1` [Compound 66] was 100 to 1000 nM; that for `CNC1CCN(C(=O)c2ccc(Nc3nc(N[C@H]4CC[C@H](O)CC4)c4sccc4n3)cc2)CC1` [Compound 67] was 100 to 1000 nM; that for `CN(C)C1CCN(C(=O)c2ccc(Nc3nc(N[C@H]4CC[C@H](O)CC4)c4sccc4n3)cc2)CC1` [Compound 68] was 100 to 1000 nM. Still for that read-out and setting: with `O[C@H]1CC[C@H](Nc2nc(Nc3ccc(OC4CCOC4)cc3)nc3ccsc23)CC1` (stereo partly drawn) [Compound 69, trans-4-((2-((4-((tetrahydrofuran-3-yl)oxy)phenyl)amino)thieno[3,2-d]pyrimidin-4-yl)amino)cyclohexanol] the figure was 100 to 1000 nM; with `CN1CCC(N(C)c2ccc(Nc3nc(N[C@H]4CC[C@H](O)CC4)c4sccc4n3)cc2)CC1` [Compound 70], 100 to 1000 nM; with `C[C@]1(O)CC[C@H](Nc2nc(Nc3cccc(CC(N)=O)c3)nc3ccsc23)CC1` [Compound 72], 1000 to 10000 nM. In turn, `CN1CCN(c2cccc(Nc3nc(N[C@H]4CC[C@](C)(O)CC4)c4sccc4n3)c2)CC1` [Compound 73] registered a 50% inhibitory concentration (IC50) of 100 to 1000 nM. Still for that read-out and setting: the value for `CN1CCN(c2ccc(Nc3nc(N[C@H]4CC[C@](C)(O)CC4)c4sccc4n3)cc2)CC1` [Compound 74] was 1000 to 10000 nM; that for `CN1CCN(Cc2cc(Nc3nc(N[C@H]4CC[C@](C)(O)CC4)c4sccc4n3)sn2)CC1` [Compound 75] was 1000 to 10000 nM.

Consider `Cc1cc(Nc2nc(N[C@H]3CC[C@H](O)CC3)c3occc3n2)sn1` [Compound 76, trans-4-((2-((3-methylisothiazol-5-yl)amino)furo[3,2-d]pyrimidin-4-yl)amino)cyclohexanol], for which the IC50 was in the range of 100 to 1000 nM. On the same count and under the same terms, with `Cc1cc(Nc2nc(N[C@H]3C[C@H](N)C3)c3sccc3n2)sn1` [Compound 77, N^4-(trans-3-aminocyclobutyl)-N^2-(3-methylisothiazol-5-yl)thieno[3,2-d]pyrimidine-2,4-diamine] the figure was at most 100 nM; with `Cc1cc(Nc2nc(N[C@H]3C[C@@H](N)C3)c3sccc3n2)sn1` [Compound 78], at most 100 nM; with `Cc1cc(Nc2nc(N[C@H]3CC[C@@H](N)CC3)c3sccc3n2)sn1` [Compound 79], at most 100 nM. Compound `Cc1cc(Nc2nc(N[C@H]3CC[C@H](N)CC3)c3sccc3n2)sn1` [Compound 80] displayed an IC50 of 100 to 1000 nM. Take `Cc1cc(Nc2nc(O[C@H]3CC[C@@H](N)C3)c3sccc3n2)sn1` [Compound 81]: the 50% inhibitory concentration (IC50) is 100 to 1000 nM. On the same count and under the same terms, the value for `Cc1cc(Nc2nc(O[C@H]3CC[C@@H](N)CC3)c3sccc3n2)sn1` [Compound 82] was 100 to 1000 nM; that for `Cc1cc(Nc2nc(O[C@H]3CC[C@H](N)CC3)c3sccc3n2)sn1` [Compound 83] was at most 100 nM.

Compound `Cn1cc(Nc2nc(N[C@H]3CC[C@@H](N)CC3)c3sccc3n2)cn1` [Compound 84] returned an IC50 of 100 to 1000 nM. Still for that read-out and setting: with `Cn1cc(Nc2nc(O[C@H]3CC[C@@H](N)C3)c3sccc3n2)cn1` [Compound 85] the figure was 100 to 1000 nM; with `CN[C@H]1C[C@H](Nc2nc(Nc3cc(C)ns3)nc3ccsc23)C1` [Compound 86, N^4-(trans-3-(methylamino)cyclobutyl)-N^2-(3-methylisothiazol-5-yl)thieno[3,2-d]pyrimidine-2,4-diamine], 100 to 1000 nM. Take `CN[C@H]1C[C@@H](Nc2nc(Nc3cc(C)ns3)nc3ccsc23)C1` [Compound 87]: the IC50 is 100 to 1000 nM. Still for that read-out and setting: with `CN[C@H]1CC[C@@H](Nc2nc(Nc3cc(C)ns3)nc3ccsc23)CC1` [Compound 88] the figure was 100 to 1000 nM; with `CN[C@H]1CC[C@H](Nc2nc(Nc3cc(C)ns3)nc3ccsc23)CC1` [Compound 89], 100 to 1000 nM; with `CN[C@H]1CC[C@@H](Oc2nc(Nc3cc(C)ns3)nc3ccsc23)CC1` [Compound 90], 100 to 1000 nM. Same read-out and setting: the value for `Cc1cc(Nc2nc(N[C@H]3CC[C@H](N(C)C)CC3)c3sccc3n2)sn1` [Compound 91, N^4-(trans-4-(dimethylamino)cyclohexyl)-N^2-(3-methylisothiazol-5-yl)thieno[3,2-d]pyrimidine-2,4-diamine] was at most 100 nM. Same read-out and setting: with `Cc1cc(Nc2nc(N[C@H]3CC[C@@H](N(C)C)CC3)c3sccc3n2)sn1` [Compound 92] the figure was 100 to 1000 nM. `CCN(CC)[C@H]1CC[C@@H](Nc2nc(Nc3cc(C)ns3)nc3ccsc23)CC1` [Compound 93] showed a half-maximal inhibitory concentration (IC50) of 100 to 1000 nM. The same measure, in the same setting: the value for `CCN(CC)[C@H]1CC[C@H](Nc2nc(Nc3cc(C)ns3)nc3ccsc23)CC1` [Compound 94] was at most 100 nM; that for `Cc1cc(Nc2nc(O[C@H]3CC[C@@H](N(C)C)CC3)c3sccc3n2)sn1` [Compound 95] was at most 100 nM; that for `Cc1cc(Nc2nc(O[C@H]3CC[C@H](N(C)C)CC3)c3sccc3n2)sn1` [Compound 96] was at most 100 nM.

Compound `Cc1cc(Nc2nc(N[C@H]3CC[C@H](N(CCO)CCO)CC3)c3sccc3n2)sn1` [Compound 97] displayed a half-inhibitory concentration (IC50) of at most 100 nM. Still for that read-out and setting: with `Cc1cc(Nc2nc(N[C@H]3CC[C@H](N4CCCCC4)CC3)c3sccc3n2)sn1` [Compound 98, N^4-(trans-4-(piperidin-1-yl)cyclohexyl)-N^2-(3-methylisothiazol-5-yl)thieno[3,2-d]pyrimidine-2,4-diamine] the figure was at most 100 nM.

The compound `Cc1cc(Nc2nc(N[C@H]3CC[C@H](N4CCCC4)CC3)c3sccc3n2)sn1` [Compound 99] gave an IC50 of at most 100 nM.

In turn, `Cc1cc(Nc2nc(N[C@H]3CC[C@H](N4CCOCC4)CC3)c3sccc3n2)sn1` [Compound 100] registered an IC50 of at most 100 nM. As to `Cc1cc(Nc2nc(O[C@H]3CC[C@H](N4CCCC4)CC3)c3sccc3n2)sn1` [Compound 101], the IC50 was at most 100 nM. The same measure, in the same setting: the value for `Cc1cc(Nc2nc(O[C@H]3CC[C@H](N4CCCCC4)CC3)c3sccc3n2)sn1` [Compound 102] was at most 100 nM; that for `Cc1cc(Nc2nc(O[C@H]3CC[C@H](N4CCOCC4)CC3)c3sccc3n2)sn1` [Compound 103] was 100 to 1000 nM; that for `Cc1cc(Nc2nc(N[C@H]3CC[C@H](O)CC3)c3c(ccn3C)n2)sn1` [Compound 104, trans-4-((5-methyl-2-((3-methylisothiazol-5-yl)amino)-5H-pyrrolo[3,2-d]pyrimidin-4-yl)amino)cyclohexanol] was at most 100 nM. Same read-out and setting: the value for `Cc1cc(Nc2nc(N[C@H]3CC[C@](C)(O)CC3)c3c(ccn3Cc3cccnc3)n2)sn1` [Compound 106] was 100 to 1000 nM; that for `Cc1cc(Nc2nc(N[C@H]3CC[C@H](N4CCCCC4)CC3)c3c(ccn3CCCC#N)n2)sn1` [Compound 107] was at most 100 nM; that for `Cc1cc(Nc2nc(N[C@H]3CC[C@H](N4CCCCC4)CC3)c3c(ccn3CCC(N)=O)n2)sn1` [Compound 108] was at most 100 nM.

The subject of the next experiment is TMD-8 cells. Put plainly: TMD-8 cell growth inhibition assay (CCK-8). The experiment is classed as cell-based. The following applies: Homo sapiens, TMD8, 96 hours. How it is done: The compounds of Examples 9, 98 and 105 of the invention were tested in TMD-8 cell growth inhibition assay. TMD-8 cells (available from Korea Hanmi Research Center) were cultured in RMPI-1640 medium (purchased from Gibco, Cat. No.: 22440) containing 10% fetal bovine serum (purchased from Gibco, Cat. No.: 10099-141). The TMD-8 cells in logarithmic growth phase were seeded in a 96-well plate at 20,000 cells/well/100 μL, and RMPI-1640 medium (100 μL) was added into blank control wells. The test samples were diluted with RMPI-1640 medium to 2 folds of the final concentration (10-fold dilutions starting from 10 μM, setting 6 drug concentrations, and testing in replicate wells at each concentration). The diluted test samples were added to test wells seeded with cells at 100 μL/well, and RMPI-1640 medium (100 μL) was separately added to the positive control wells and the blank control wells. The 96-well plate was placed in the incubator and reacted at 37° C., 5% CO2 for 96 hours. After the reaction was completed, the 96-well plate was taken from the incubator and to each well was added CCK-8 (100 μL) (purchased from DOJINDO, Cat. No.: CK04-11). Then the 96-well plate was put back to the incubator and incubated for another 2 hours. The light absorbance was measured at 450 nm, and the IC50 values were calculated therefrom.
In turn, `Cc1cc(Nc2nc(N[C@H]3CC[C@](C)(O)CC3)c3sccc3n2)sn1` [Compound 9] displayed an IC50 of at most 500 nM. Still for that read-out and setting: with `Cc1cc(Nc2nc(N[C@H]3CC[C@H](N4CCCCC4)CC3)c3sccc3n2)sn1` [Compound 98, N^4-(trans-4-(piperidin-1-yl)cyclohexyl)-N^2-(3-methylisothiazol-5-yl)thieno[3,2-d]pyrimidine-2,4-diamine] the figure was at most 500 nM.

The next experiment deals with TNF-α secretion in THP-1 cells. The experiment is described as follows: LPS-induced TNF-α secretion assay in THP-1 cells (ELISA). The experiment is classed as cell-based. As to conditions: Homo sapiens; LPS-induced TNF-α secretion in THP-1 cells, 2 hours pre-incubation, 24 hours LPS. The procedure:
The compounds of Examples 9, 98 and 105 of the invention were tested in LPS-induced TNF-α secretion assay in THP-1 cells. Human THP-1 cells (purchased from ATCC, Cat. No.: TIB-202) were cultured in RPMI-1640 medium (purchased from Gibco, Cat. No.: 22440) containing 10% fetal bovine serum (purchased from Gibco, Cat. No.: 10099-141) and 0.05 mM of 2-mercaptoethanol (purchased from Gibco, Cat. No.: 21985). The THP-1 cells in logarithmic growth phase were seeded in a 96-well plate at 2×10^5 cells/well/100 μL. The test samples were diluted with RMPI-1640 medium to 4 folds of the final concentration (5-fold dilutions starting from 10 μM, setting 6 drug concentrations, and testing in replicate wells at each concentration). The diluted test samples were added to the test wells seeded with cells at 50 μL/well, and RMPI-1640 medium (50 μL) was separately added to positive control and negative control wells. The 96-well plate was placed in the incubator at 37° C., 5% CO2 and pre-incubated for 2 hours. The 96-well plate was taken out, and 400 ng/mL of LPS (50 μL) (purchased from Sigma, Cat. No.: L6529-1MG) was added to each well of the test wells and the positive control wells, and RMPI-1640 medium (50 μL) was added to the negative control wells. After incubation in the incubator at 37° C., 5% CO2 for 24 hours, the cell culture supernatant was taken and determined for the content of TNF-α in the supernatant using a human TNF-α ELISA kit (purchased from DKW, Cat. No.: 12-1720-096).
In general terms: An ELISA detects its analyte on a solid surface through an enzyme-linked reagent.
`Cc1cc(Nc2nc(N[C@H]3CC[C@](C)(O)CC3)c3sccc3n2)sn1` [Compound 9] had an IC50 of at most 500 nM. For the compound `Cc1cc(Nc2nc(N[C@H]3CC[C@H](N4CCCCC4)CC3)c3sccc3n2)sn1` [Compound 98, N^4-(trans-4-(piperidin-1-yl)cyclohexyl)-N^2-(3-methylisothiazol-5-yl)thieno[3,2-d]pyrimidine-2,4-diamine], the IC50 is at most 500 nM.
